Data from a melting point compilation (Tetko et al.; mined from patent text by program, amines drawn as free bases though some values may be those of a salt).

| Structure (SMILES) | melting point [°C] |
| --- | --- |
| COC(CCCNC(=O)C1CCC(C(=O)NCCCC(OC)OC)CC1)OC (stereo unspecified) | 191 to 195 |
| CC(C)CC(CS)C(N)=O (stereo unspecified) | 147 to 154 |
| O=C(Nc1ccccc1)C1Cc2cc(Br)cc3[nH]c(=O)c(=O)n1c23 (stereo unspecified) | > 300 |
| CCOCC(=O)N(c1c(C)c(C)cc2ccccc12)C(C)C(=O)OC (stereo unspecified) | 96 to 108 |
| O=C1CCC(NC(=O)C(Cl)(Cl)Cl)c2ccsc21 (stereo unspecified) | 167 to 171 |
| CCCn1cnc2c1c(=O)n(CCCCCC(C)=O)c(=O)n2C | 69 to 70 |
| O=C(NC1CCOCC1)c1ccc(-c2cc(-c3c(-c4ccccn4)nc4ccccn34)ccn2)cc1 | 179 |
| CC1(OC(=O)C#CC2C(C(=O)OC(C#N)c3cccc(Oc4ccccc4)c3)C2(C)C)CCC1 (stereo unspecified) | 76 |
| CCCN(CCC)C(=O)CNc1nc(-c2ccccc2)nc(C)c1C | 79 to 80 |
| CC(=O)Nc1cc(C=CN(C)C)c([N+](=O)[O-])cn1 | 193 to 196 |
| CC1(C)CC(C(O)CNc2nc(Cl)nc(NCC(O)C3CC(C)(C)NC(C)(C)C3)n2)CC(C)(C)N1 (stereo unspecified) | 206 to 207 |
| O=C(O)c1ccccc1OCCN1CCC(c2cn(CCC3OCCO3)c3ccccc23)CC1 | 118 to 120 |
| CC(C)C(NC(=O)c1ccncc1)C(=O)NC(Cc1ccccc1)C(O)C(Cc1ccccc1)NC(=O)C(NC(=O)c1ccncc1)C(C)C (stereo unspecified) | 256 to 258 |
| COc1ccc(C(=O)N2c3ccccc3C(N3CCc4ccccc4C3)CC2C)cc1OC (stereo unspecified) | 128 to 129 |
| CC(CC(=O)O)C(=O)NC1(C(=O)O)CCCC1 (stereo unspecified) | 169 to 170 |
| Cc1ccc(NC(=O)NCc2ccc3c(c2)CN(C2CCC(=O)NC2=O)C3=O)cc1 (stereo unspecified) | 267 to 269 |
| CC(C)(C)c1cc(C=C2SC(=S)NC2=O)cc(C(C)(C)C)c1O | 260 |
| COc1ccnc(CSc2nc3cc(F)c(F)cc3[nH]2)c1C | 216 to 218 |
| CC(C)Sc1sc(-c2cc[nH]n2)c2c1C(=O)CC(C)(C)C2 | 195 to 198 |
| CCCCOC(=O)CNC(=O)c1ncc(C(=O)OCCCC)cc1OC | 80 to 81 |
| Cc1ccc(CCN2CCN(c3noc4ccccc34)CC2)c2c1C(C)(C)CCN2 | 135 |
| CC(=O)Nc1nc2c(s1)-c1c(c(-c3c[nH]cn3)nn1-c1ccccc1Cl)CC2 | 287 to 288 |

| Structure (SMILES) | melting point [°C] |
| --- | --- |
| CN(C)c1cnc([N+](=O)[O-])cn1 | 221 to 223 |
| CC(C)(C)OC(=O)N1Cc2cscc2C1 | 36 to 38 |
| COc1cc(NCCCCCCN2CCN(C(=NC#N)SC)CC2)c2nccc(C)c2c1 | 97 to 99 |
| CC(=O)N1CC(CCN2CCC(c3ccccc3)CC2)c2ccccc21 (stereo unspecified) | 92 to 93 |
| CCCc1nc2c(N)ncc(Br)c2n1CCOCCN | 114 to 117 |
| O=[N+]([O-])c1cn2c(n1)OC[C@@H](OCc1ccc(Cl)nc1)C2 | 191 to 193 |
| CC(=O)OCCOCCN1CCC(CNC(=O)[C@@H]2CCCN2S(=O)(=O)c2ccc(Cl)c(COc3cccc4c(-n5ccnc5)cc(C)nc34)c2Cl)CC1 | 90 |
| Cc1[nH]c2cc(OCc3ccccc3)ccc2c1C(=O)C1CSC(c2cccnc2)N1 (stereo unspecified) | 89 to 93 |
| O=[N+]([O-])c1oc2ccc(-c3ccc(CCO)cc3)cc2c1-c1ccccc1 | 86 to 87 |
| O=C1OCC2C3OC(C4CCCCC43)C12 (stereo unspecified) | 90 to 91 |
| CCCCc1ccc(C=Nc2ccc(C#N)cc2)cc1 | 38.1 to 38.7 |
| O=C1C=Cc2ccccc2C1(Cc1ccncc1)Cc1ccncc1 | 111 to 112 |
| CC1(C)CC(=O)SC(=NCCCCN2CCN(c3ncccn3)CC2)N1 | 148 |
| CCCCc1ncc([N+](=O)[O-])c(O)n1 | 67 to 69 |
| Cc1nc(SCc2ccc(Cl)cc2)nc2c1CCCC2 | 48 |
| CC1CC2C3CC(Cl)C4=CC(=O)C=CC4(C)C3C(O)CC2(C)C1C(=O)COC(=O)C(C)(C)C (stereo unspecified) | 189 |
| CCCCCNC(=O)Nc1ccccc1C(=O)NCC1CCN(C(c2ccccc2)c2ccccc2)CC1 | 178 to 180 |
| C[C@@H]1CN(c2ccc(-c3[nH]nc4c3C(=O)c3c(NC(=O)NN5CCOCC5)cccc3-4)cc2)C[C@H](C)N1C | 240 |
| CCOC(=O)CCc1cc(-c2ccccc2)nn1Cc1ccc(Cl)cc1Cl | 91 to 93 |
| COc1cc(C(=O)N2CCC(CCN3CCC(Nc4nc5ccccc5n4Cc4ccccn4)CC3)(c3ccc(F)c(F)c3)C2)cc(OC)c1OC (stereo unspecified) | 101 to 107 |
| Cc1ccc(CN2C(=O)C3(COc4cc5c(cc43)OCO5)c3ccccc32)o1 (stereo unspecified) | 117 to 119 |
| COc1ccc2[nH]cc(CC(C)(C)N)c2c1 | 114 to 116 |

| Structure (SMILES) | melting point [°C] |
| --- | --- |
| COc1cccc(-c2nc(Cl)nc(Nc3ccc(O)cc3)n2)c1 | 164 |
| CC(C)(C)OC(=O)NN1CCC(C(=O)O)CC1 | 133 to 135 |
| O=c1oc2c(c(O)c1C(c1ccccc1)C1CC1)CCCCCC2CC1CCOC1 (stereo unspecified) | 80 to 84 |
| N#CC(=Cc1ccc(Cl)cc1Cl)n1cncn1 | 156 to 160 |
| Cc1cc(OCc2ccc(-c3ccc(C(F)(F)F)cc3)nn2)ccc1OC(C)(C)C(=O)O | 191 to 192 |
| CN(c1nnc(C(F)(F)F)s1)C1CCN(Cc2ccc(F)cc2)CC1 | 85.8 |
| CCCCN(CC)CC1CCCCN1CCNC(=O)N1c2ccccc2C(=O)Nc2cccnc21 (stereo unspecified) | 156 to 157 |
| Cc1nc2cc(CN3CCN(C(c4ccccc4)c4ccccc4)CC3)ccc2n1CCSc1ccccc1 | 170 |
| Oc1ccc(-c2ncc3ncc(-c4cccc(O)c4)cc3n2)cc1 | 256 to 257 |
| CNC(=C[N+](=O)[O-])NCCCCCCCCCCCCNC(C[N+](=O)[O-])NCCSCc1ccc(CN(C)C)o1 (stereo unspecified) | 78 to 80 |
| CC(C)n1nc(-c2sc(NC(=O)c3ccc(CN(C)CCc4ccccn4)cc3)nc2-c2ccccc2)ccc1=O | 172 to 174 |
| COc1cc(N2CCNCC2)cc(OC)c1OC | 73 to 77 |
| CS(=O)(=O)c1cc([N+](=O)[O-])c(C(=O)O)cc1N(CCBr)CCBr | 174 to 176 |
| N#Cc1ccc(Nn2cnnc2)cc1-c1ccccc1 | 181 to 182 |
| CSC(=NC#N)N(C)N=Cc1ccccc1 | 132 to 133 |
| CC1(C)CC(=O)Nc2c(Br)cc3c(c21)OC(CBr)C3 (stereo unspecified) | 237 to 239 |
| COc1ccc2c(c1)OCC(c1ccc(C(F)(F)F)cc1)C2c1ccc(O)cc1 (stereo unspecified) | 211 to 213 |
| Cc1nc(-n2cc(-c3ccsc3)nn2)sc1C(=O)NCc1ccccc1 | 123 to 126 |
| CCOC(=O)COc1ccc(OCC)cc1C(Nc1ccc(C(=N)NC(=O)OC(C)(C)C)cc1)C(=O)OCC (racemic) | 241 |
| CC(C)Oc1cc(CCC(=O)O)n(Cc2ccc(C(F)(F)F)cc2Cl)n1 | 122 |

Second part, the molecule after the results:

| melting point [°C] | Structure (SMILES) |
| --- | --- |
| 180 to 182 | CCOC(=O)C1=C(C)Nc2ccnc(OC(C)C)c2C1c1cccc([N+](=O)[O-])c1 (stereo unspecified) |
| 205 to 207 | N#Cc1cc(-c2ccncc2)sc1-c1ccncc1 |
| 146 to 148 | CCOc1cc(NC(=O)NS(=O)(=O)c2ccc(C)cc2)ccn1 |
| 76 to 78 | Cc1cccc(OCCOS(N)(=O)=O)c1 |
| 158 to 160 | O=S(=O)(Nc1ccc(Cl)c(Cl)c1)c1cc(S(=O)(=O)Nc2ccc(Cl)c(Cl)c2)c2cc(O)ccc2c1 |
| 226 to 229 | COc1nc2c(O)cccc2n1C |
| 46.5 to 47.5 | NCc1nc2ccccc2o1 |
| 162 | Nc1ccc(-c2cc(C(F)(F)F)nc(-c3ccc(C(F)(F)F)cc3)n2)cc1 |
| 111 to 112 | COC(=O)c1nccnc1N(C)c1ccc(Cl)cc1[N+](=O)[O-] |
| 267 to 270 | COc1ccc(-c2c(NC(=O)Nc3ccc(F)cc3F)c(=O)oc3ccc(Cl)cc23)cc1OC |
| 234 to 236 | O=C(O)CCN1Cn2cc(C(=O)O)cc2-c2ccccc21 |
| 148 to 149 | COc1cc(C=O)cc(OC)c1OCc1ccc([N+](=O)[O-])cc1 |
| 171 to 172 | O=C1Cc2cc([N+](=O)[O-])ccc2Sc2ccccc21 |
| 160 to 161 | Nc1cc(N2CCc3ccccc3C2)ccn1 |
| 136 to 139 | C[C@H](Nc1nc(Nc2cccc(NS(C)(=O)=O)c2)nc2[nH]cnc12)c1ccccc1 |
| 144 | O=Cc1ccc(O)c(C=O)n1 |
| 140 to 141 | COc1ccc2c(c1)c(CCNC(C)=O)cn2S(=O)(=O)c1ccccc1 |
| 248 to 250 | O=C(O)c1ccc2c(COc3cccnc3)csc2c1 |
| 99.5 to 101 | CC1NC(=O)N(C)N=C1c1ccccc1 (stereo unspecified) |

| melting point [°C] | Structure (SMILES) |
| --- | --- |
| 110 to 112 | O=C(NCc1ccccc1)OCC(=O)c1ccccc1 |
| 123 to 125 | NS(=O)(=O)c1ccc(F)cc1 |
| 106 to 107 | Cc1ccccc1Oc1cccc(CCC(=O)O)c1O |
| 158 to 160 | CC(C)c1ccc2c(c1)OC(C(F)(F)F)C(C(=O)O)=C2 (stereo unspecified) |
| 208 | O=C(O)c1c(Cl)nc(-c2ccccc2)c2ccccc12 |
| 163 to 165 | NC=C1Cc2ccccc2C1=O |
| 131 to 133 | O=CN1CCCN(Cc2ccc(Cl)cc2)C1=C[N+](=O)[O-] |
| > 300 | O=C(O)c1ccc2c(c1)oc(=O)c1cc(C(=O)O)ccc12 |
| 139 to 141 | CO[C@]1(c2ncc(S(=O)(=O)c3ccc(/C(C)=N/O)cc3)s2)CCO[C@@H]1C (racemic) |
| 106 | CC(C)n1nc(C#Cc2ccc(F)cc2)ccc1=O |
| 50 to 55 | CCC(C)(Oc1ccc(-c2ccccc2)cc1OC)C(=O)O (stereo unspecified) |
| 108 to 112 | O=C(CC1CCCCC1=O)c1ccc(-c2ccccc2)cc1 (stereo unspecified) |
| 136 to 137 | CC(C)(C)c1cc2c(c(C(C)(C)C)c1)OC(=O)C2c1ccc(C#N)cc1 (stereo unspecified) |
| 201 to 203 | Clc1ccc(-c2ccc(Br)cc2)nn1 |
| 160 to 165 | COCCNc1ccc(C2=NNC(=O)NC2C)cc1 (stereo unspecified) |
| > 400 | O=c1[nH][nH]c(=O)c2c(O)c3ccc([N+](=O)[O-])cc3nc12 |
| 102 | CC(C)c1cccc(C(C)C)c1NC(=O)CC(=O)N(Cc1ccccc1)C(C)C |
| 82 to 83 | CON(C)C(=O)Nc1ccc(OCCc2ccc(C)cc2)cc1 |
